ChEMBL document CHEMBL2380205, “Discovery of a new class of natural product-inspired quinazolinone hybrid as potent antileishmanial agents” (J Med Chem, 2013)

Experiments:
Leishmania donovani [1] = assay: Antileishmanial activity against amastigotes of Leishmania donovani MHOM/IN/60/Dd8 infected in mouse J-774A.1 cells after 72 hrs by luciferase reporter gene assay; assay type: functional, organism-based; details: MHOM/IN/60/Dd8, J774.A1, 72 h
Leishmania donovani [2] = assay: Ratio of miltefosine IC50 to compound IC50 for amastigotes of Leishmania donovani MHOM/IN/60/Dd8 infected in mouse J-774A.1 cells; assay type: functional, J774.A1
Leishmania donovani [3] = assay: Antileishmanial activity against promastigotes of Leishmania donovani MHOM/IN/60/Dd8 after 72 hrs by luciferase reporter gene assay; assay type: functional, organism-based; details: MHOM/IN/60/Dd8, 72 h
[4] = Cytotoxicity against african green monkey Vero cells after 72 hrs by MTT assay; assay type: cell-based; details: chlorocebus sabaeus
[5] = Cytotoxicity against mouse J774A1 cells after 72 hrs by MTT assay; assay type: cell-based, J774.A1
[6] = Selectivity index, ratio of CC50 for mouse J774A1 cells to IC50 for amastigotes of Leishmania donovani MHOM/IN/60/Dd8 infected in mouse J-774A.1 cells; assay type: functional, J774.A1
[7] = Tmax in Sprague-Dawley rat at 5 mg/kg, iv; assay type: ADME, organism-based; parameters: dose 5 mg/kg, route intravenous; details: in vivo
[8] = AUC (0 to t) in Sprague-Dawley rat at 5 mg/kg, iv; assay type: ADME, organism-based; parameters: dose 5 mg/kg, route intravenous; details: plasma
Rattus norvegicus [9] = assay: Mean residence time in Sprague-Dawley rat at 5 mg/kg, iv; assay type: ADME, organism-based; parameters: dose 5 mg/kg, route intravenous; details: in vivo
Leishmania [10] = assay: Antileishmanial activity against amastigotes of Leishmania infected in mouse J-774A.1 cells assessed as decrease in IL-10 production at IC50 after 24 hrs by ELISA relative to control; assay type: functional, J774.A1
Leishmania [11] = assay: Antileishmanial activity against amastigotes of Leishmania infected in mouse J-774A.1 cells assessed as increase in TNF-alpha production at IC50 after 24 hrs by ELISA relative to control; assay type: functional, J774.A1
Rattus norvegicus [12] = assay: Volume of distribution at steady state in Sprague-Dawley rat at 5 mg/kg, iv; assay type: ADME, organism-based; parameters: dose 5 mg/kg, route intravenous; details: in vivo
Albumin = Albumin (Bos taurus, UniProt P02769); assay: Binding affinity to bovine serum albumin by fluorescence spectrophotometry; assay type: ADME; details: cattle, isolated protein
[13] = Lipophilicity, log P of the compound; assay type: physicochemical; details: octanol/water
Leishmania [14] = assay: Antileishmanial activity against amastigotes of Leishmania infected in mouse J-774A.1 cells assessed as decrease in […] production at IC50 after 24 hrs by ELISA relative to control; assay type: functional, J774.A1
[15] = Elimination half life in Sprague-Dawley rat at 10 mg/kg, po; assay type: ADME, organism-based; parameters: dose 10 mg/kg, route oral; details: in vivo, read-out: beta t1/2 (converted)
[16] = Tmax in Sprague-Dawley rat at 10 […], po; assay type: ADME, organism-based; details: in vivo
Leishmania [17] = assay: Antileishmanial activity against amastigotes of Leishmania infected mouse J774A1 cells assessed as induction of nitric oxide generation after 24 hrs by ELISA (reference value: 4.65 uM); assay type: functional, J774.A1
Rattus norvegicus [18] = assay: Volume of distribution at steady state in Sprague-Dawley rat at 10 mg/kg, po; assay type: ADME, organism-based; parameters: dose 10 mg/kg, route oral; details: in vivo
Rattus norvegicus [19] = assay: Clearance in Sprague-Dawley rat at 10 mg/kg, po; assay type: ADME, organism-based; parameters: dose 10 mg/kg, route oral; details: in vivo
[20] = Oral bioavailability in Sprague-Dawley rat at 10 mg/kg; assay type: ADME, organism-based; details: in vivo
Leishmania [21] = assay: Antileishmanial activity against amastigotes of Leishmania infected in mouse J-774A.1 cells assessed as increase in IL-12 production at IC50 after 24 hrs by ELISA relative to control; assay type: functional, J774.A1
Leishmania donovani [22] = assay: Antileishmanial activity against amastigotes of Leishmania donovani MHOM/IN/60/Dd8 infected in golden hamster assessed as amastigote count at 50 mg/kg/day, ip administered for 5 days measured on day 7 of post last dose by Giemsa staining; assay type: functional; details: MHOM/IN/60/Dd8, ip, route intraperitoneal
[23] = Cmax in Sprague-Dawley rat at 5 mg/kg, iv; assay type: ADME, organism-based; parameters: dose 5 mg/kg, route intravenous; details: in vivo
Rattus norvegicus [24] = assay: Elimination half life in Sprague-Dawley rat at 5 mg/kg, iv; assay type: ADME, organism-based; parameters: dose 5 mg/kg, route intravenous; details: in vivo
Rattus norvegicus [25] = assay: AUC (0 to t) in Sprague-Dawley rat at 10 mg/kg, po; assay type: ADME, organism-based, Plasma; parameters: dose 10 mg/kg, route oral; details: in vivo
[26] = Mean residence time in Sprague-Dawley rat at 10 mg/kg, po; assay type: ADME, organism-based; parameters: dose 10 mg/kg, route oral; details: in vivo
Rattus norvegicus [27] = assay: Clearance in Sprague-Dawley rat at 5 mg/kg, iv; assay type: ADME, organism-based; parameters: dose 5 mg/kg, route intravenous; details: in vivo
[28] = Cmax in Sprague-Dawley rat at 10 mg/kg, po; assay type: ADME, organism-based; parameters: dose 10 mg/kg, route oral; details: in vivo
[29] = Volume of distribution at steady state in Sprague-Dawley rat at 10 mg/kg, iv; assay type: ADME, organism-based; parameters: dose 10 mg/kg, route intravenous; details: in vivo, read-out: Vdss
[30] = Elimination half life in Sprague-Dawley rat at 10 mg/kg, iv; assay type: ADME, organism-based; parameters: dose 10 mg/kg, route intravenous; details: in vivo, read-out: beta t1/2 (converted)
[31] = AUC (0 to t) in Sprague-Dawley rat at 10 mg/kg, iv; assay type: ADME, organism-based; parameters: dose 10 mg/kg, route intravenous; details: plasma
[32] = Cmax in Sprague-Dawley rat at 10 mg/kg, iv; assay type: ADME, organism-based; parameters: dose 10 mg/kg, route intravenous; details: in vivo
[33] = Tmax in Sprague-Dawley rat at 10 […], iv; assay type: ADME, organism-based; details: in vivo
[34] = Clearance in Sprague-Dawley rat at 10 mg/kg, iv; assay type: ADME, organism-based; parameters: dose 10 mg/kg, route intravenous; details: in vivo
[35] = Mean residence time in Sprague-Dawley rat at 10 mg/kg, iv; assay type: ADME, organism-based; parameters: dose 10 mg/kg, route intravenous; details: in vivo
Leishmania donovani [36] = assay: Antileishmanial activity against amastigotes of Leishmania donovani MHOM/IN/60/Dd8 infected in golden hamster assessed as amastigote count at 30 mg/kg/day, po administered for 5 days measured on day 7 of post last dose by Giemsa staining; assay type: functional

Sequence of Albumin (P02769 whole entry): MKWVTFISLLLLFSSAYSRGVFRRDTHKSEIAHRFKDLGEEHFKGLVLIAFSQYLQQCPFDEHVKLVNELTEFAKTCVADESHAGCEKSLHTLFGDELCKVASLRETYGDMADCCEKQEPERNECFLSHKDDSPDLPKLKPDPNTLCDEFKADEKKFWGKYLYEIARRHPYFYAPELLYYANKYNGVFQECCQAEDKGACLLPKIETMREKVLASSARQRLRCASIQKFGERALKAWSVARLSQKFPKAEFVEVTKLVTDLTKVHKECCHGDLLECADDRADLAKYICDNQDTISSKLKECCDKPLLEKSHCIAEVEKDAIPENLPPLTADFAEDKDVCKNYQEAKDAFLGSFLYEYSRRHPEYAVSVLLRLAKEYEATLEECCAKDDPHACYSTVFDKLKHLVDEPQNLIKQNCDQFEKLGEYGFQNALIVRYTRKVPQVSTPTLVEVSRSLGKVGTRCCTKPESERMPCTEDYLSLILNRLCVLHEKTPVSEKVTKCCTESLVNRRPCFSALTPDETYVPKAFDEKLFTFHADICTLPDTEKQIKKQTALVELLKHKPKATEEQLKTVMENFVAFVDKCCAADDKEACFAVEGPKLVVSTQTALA

IC50 (Leishmania donovani [1]) | IC50 (Leishmania donovani [3]) | KSV (Albumin) | Kq (Albumin) | logP [13] | CL (Rattus norvegicus [19]) | bioavailability [20] | AUCt (Rattus norvegicus [25]) | MRT [26] | SMILES | CC50 at 72 h [4] | CC50 at 72 h [5] | Ratio CC50/IC50 [6] | fold change (FC) (Leishmania [10]) | fold change (FC) (Leishmania [11]) | fold change (FC) (Leishmania [14]) | Activity (Leishmania [17]) | fold change (FC) (Leishmania [21]) | inhibition in vivo at 50 mg/kg/day (Leishmania donovani [22]) | further results
0.65 µM | 1.75 µM | – | – | – | – | – | – | – | CN1CCN(c2ccc(-c3cc(-c4ccc(C5NC(=O)c6ccccc6N5)cc4)nc(N)n3)cc2)CC1 (stereo unspecified) | 8.32 µM | 10.2 µM | 15.16 | – | – | – | – | – | – | Ratio IC50 (Leishmania donovani [2]): 13
3.95 µM | 7.05 µM | 10 ×10⁴ L/mol | 10 ×10¹² L/mol/s | 6.23 | 29.8 mL/min/kg | 5.75% | 327 ng·h/mL | 3.01 h | CC1(c2ccc(Nc3nc(N4CCCCC4)nc(N4CCCCC4)n3)cc2)NC(=O)c2ccccc2N1 (stereo unspecified) | > 400 µM | > 400 µM | >101.26 | >3 | >9 | 2.8 | 15.72 µM | 6 | 73.2% | Tmax [7]: 4.8 min; AUC(0-t) [8]: 2840 ng·h/mL; MRT (Rattus norvegicus [9]): 3.07 h; Vdss (Rattus norvegicus [12]): 5.44 L/kg; half-life [15]: 1.26 h; Tmax [16]: 2 h; Vdss (Rattus norvegicus [18]): 5.39 L/kg; Cmax [23]: 1830 ng/mL; beta t1/2 (Rattus norvegicus [24]): 0.84 h; CL (Rattus norvegicus [27]): 29.5 mL/min/kg; Cmax [28]: 108 ng/mL
4.39 µM | > 40 µM | 6 ×10⁴ L/mol | 6 ×10¹² L/mol/s | 7.19 | 6 mL/min/kg | 2.94% | 716 ng·h/mL | 8.44 h | CC1(c2ccc(Nc3nc(N4CCc5ccccc5C4)nc(N4CCc5ccccc5C4)n3)cc2)NC(=O)c2ccccc2N1 (stereo unspecified) | > 400 µM | > 400 µM | >91.11 | 5 | 11 | >3 | 22.58 µM | >8 | 80.9% | Vd [29]: 1.95 L/kg; half-life [30]: 12.8 h; AUC(0-t) [31]: 24300 ng·h/mL; Cmax [32]: 63300 ng/mL; Tmax [33]: 4.8 min; clearance [34]: 5.5 mL/min/kg; MRT [35]: 5.88 h

SMILES | IC50 (Leishmania donovani [1]) | IC50 (Leishmania donovani [3]) | KSV (Albumin) | Kq (Albumin) | logP [13] | CL (Rattus norvegicus [19]) | bioavailability [20] | AUCt (Rattus norvegicus [25]) | MRT [26] | CC50 at 72 h [4] | CC50 at 72 h [5] | Ratio CC50/IC50 [6] | fold change (FC) (Leishmania [10]) | fold change (FC) (Leishmania [11]) | fold change (FC) (Leishmania [14]) | Activity (Leishmania [17]) | fold change (FC) (Leishmania [21]) | inhibition in vivo at 50 mg/kg/day (Leishmania donovani [22]) | further results
CCCCCCCCCCCCCCCCOP(=O)([O-])OCC[N+](C)(C)C [MILTEFOSINE] | 8.4 µM | 1.05 µM | – | – | -0.21 | – | – | – | – | – | 12.4 µM | 1.48 | – | – | – | – | – | – | inhibition in vivo at 30 mg/kg/day (Leishmania donovani [36]): 98.1%
